In PubChem BioAssay (NCI):
Values joined by “and” are separate entries in the source; they are usually repeats but may differ in a detail not shown here. Equal values may be shown once.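 How tested: cells in 96-well plates exposed to compound for 48 hours at five concentrations. GI50 marks 50% less growth. TGI: total growth inhibition.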

How the values were obtained:
Assay in all cases: growth of human tumour cells (NCI), 48 h
NCI-H23 lung = system: NCI-H23 lung
ACHN renal = system: ACHN renal
MCF7 breast = system: MCF7 breast
EKVX NSCLC = system: EKVX NSCLC
UACC-62 melanoma = system: UACC-62 melanoma
HS 578T breast = system: HS 578T breast
SF-539 CNS = system: SF-539 CNS
SW-620 colon = system: SW-620 colon
PC-3 prostate = system: PC-3 prostate
XF 498 CNS = system: XF 498 CNS

SMILES | TGI (NCI-H23 lung) | TGI (ACHN renal) | TGI (MCF7 breast) | TGI (EKVX NSCLC) | TGI (UACC-62 melanoma) | TGI (HS 578T breast) | TGI (SF-539 CNS) | TGI (SW-620 colon) [µM] | TGI (PC-3 prostate) | TGI (XF 498 CNS) | GI50 (HS 578T breast) [µM] | GI50 (XF 498 CNS) [µM] | GI50 (PC-3 prostate) [µM]
CCOC(=O)c1c(NC(=O)c2ccc(Br)cc2)sc2c1CCCC2 | > 100 µM | > 100 µM | > 100 µM | > 100 µM | > 100 µM | > 100 µM | > 100 µM | > 100 | > 100 µM | – | – | – | –
COc1ccc(N2C(=O)C3c4[nH]c5ccc(OCc6ccccc6)cc5c4C4CCC(C(C)C)CC4C3C2=O)cc1 (stereo unspecified) | > 45.3 µM | > 30.4 µM | > 100 µM | > 100 µM | > 51.7 µM | > 49.8 µM | 23.5 µM | > 100 | > 100 µM | – | – | – | –
CCCOP(=S)(N1CC1)N1CC1 | > 100 µM | > 100 µM | – | > 100 µM | > 100 µM | – | > 100 µM | > 100 | – | > 100 µM | – | – | –
COc1nc(C)nc2c1ncn2Cc1ccccc1 | > 100 µM | > 100 µM | > 100 µM | > 100 µM | > 100 µM | > 100 µM | > 100 µM | > 100 | > 100 µM | – | – | – | –
Cc1cc(Cl)ccc1NC(=O)C(=O)Cc1occc(=O)c1O | > 100 µM | > 100 µM | – | > 100 µM | > 100 µM | – | > 100 µM | > 100 | – | > 100 µM | – | – | –
Cc1ccc(N2C(=O)C(=O)N(/N=C3\C(=O)Nc4ccccc43)C2=S)cc1 | > 100 µM | > 100 µM | > 100 µM | > 100 µM | > 100 µM | > 100 µM | > 100 µM | > 100 | > 100 µM | – | – | – | –
C(=N/NC1=NCCN1)/c1c2ccccc2c(/C=N\NC2=NCCN2)c2ccccc12 | 0.647 µM and 1.4 µM and 1.03 µM | 1.26 µM and 3.97 µM | 0.788 µM and 3.14 µM and 3.88 µM | 2.32 µM and 2.94 µM and 1.57 µM | 0.274 µM and 0.425 µM and 0.242 µM | 0.262 µM and 0.591 µM | 0.345 µM and 0.857 µM and 0.402 µM | – | 0.348 µM and 0.422 µM | 0.372 µM and 0.298 µM | 0.0844 | 0.0524 | 0.0776
N#CCN(Cc1ccccc1)[C@@H]1CCC[C@]1(O)C#Cc1ccc2c(c1)OCO2 | 42 µM | 36 µM | 37.9 µM | 55.5 µM | 37.3 µM | 37.2 µM | 42.3 µM | 58.6 | 50.7 µM | – | – | – | –
CSc1nc(-c2ccc(Cl)cc2)c(C#N)c(=O)[nH]1 | > 100 µM | > 100 µM | > 100 µM | > 100 µM | > 100 µM | > 100 µM | > 100 µM | > 100 | > 100 µM | – | – | – | –
Cc1nc2nn(C)cc2c(=O)n1/N=C/c1ccccc1 | > 100 µM | > 100 µM | – | > 100 µM | > 100 µM | – | > 100 µM | > 100 | – | > 100 µM | – | – | –
CC(=O)Nc1nnc(S(=O)(=O)NC(=S)Nc2ccc(Cl)cc2)s1 | > 100 µM | > 100 µM | > 100 µM | > 100 µM | > 100 µM | > 100 µM | > 100 µM | > 100 | > 100 µM | – | – | – | –
CN(CCO)/N=N/c1nc[nH]c1C(N)=O | > 100 µM | > 100 µM | – | > 100 µM | > 100 µM | – | > 100 µM | > 100 | – | > 100 µM | – | – | –
COC(=O)C1=NN2c3ccccc3CN([C@@H](C)c3ccccc3)C(=O)[C@H]2[C@@H]1C | > 100 µM | > 100 µM | > 100 µM | > 100 µM | > 100 µM | > 100 µM | > 100 µM | > 100 | > 100 µM | – | – | – | –
Cc1ccc(-n2cc(-c3ccc(Cl)cc3)c3c2N=CN2NC(c4cccs4)=NC32)cc1 (stereo unspecified) | 52.3 µM | 19.2 µM | > 100 µM | 57.1 µM | 68.6 µM | 6.52 µM | 45.2 µM | > 100 | > 100 µM | – | – | – | –
NCCC1([N+](=O)[O-])CCNCC1 | > 100 µM | > 100 µM | > 100 µM | > 100 µM | > 100 µM | > 100 µM | > 100 µM | > 100 | > 100 µM | – | – | – | –
C=C(CC)C[C@@H]1C[C@]2(C(=O)OC)c3[nH]c4ccccc4c3CCN2C1=O | 49.7 µM | 76 µM | 47.2 µM | 85.5 µM | 36.2 µM | 41.1 µM | 30.9 µM | 35.9 | 42.8 µM | – | – | – | –
CN1CCCC(C(=O)OCC(=O)C2(O)CCC3C4CCC5=CC(=O)CCC5(C)C4C(O)CC32C)C1 (stereo unspecified) | 46.4 µM | 34.8 µM | > 65.6 µM | 67.1 µM | 37.7 µM | > 82.9 µM | 4.38 µM | > 79.2 | 30.7 µM | – | – | – | –
O=c1oc2c(ccc3c(O)cccc32)c2c1CCCC2 | > 100 µM | > 100 µM | > 100 µM | > 100 µM | 27.2 µM | > 100 µM | > 100 µM | > 100 | > 100 µM | – | – | – | –
CC(=O)Oc1cc(S(=O)(=O)Nc2n[nH]c(N)n2)c(S)cc1Cl | > 100 µM | > 100 µM | > 100 µM | > 100 µM | > 100 µM | > 100 µM | > 100 µM | > 100 | > 100 µM | – | – | – | –
COc1nc(OC)nc(Sc2ccc(Sc3ccc(Sc4nc(OC)nc(OC)n4)cc3)cc2)n1 | > 100 µM | > 100 µM | – | > 100 µM | > 100 µM | – | > 100 µM | > 100 | – | > 100 µM | – | – | –
COC(=O)[C@@H]1[C@H](O)CC[C@H]2[C@@]1(C)CC[C@@H](C)[C@]2(COC(C)=O)CC(=O)c1ccoc1 | > 50 µM | > 50 µM | > 50 µM | > 50 µM | > 50 µM | > 50 µM | > 50 µM | > 50 | > 50 µM | – | – | – | –
O=C1Cc2ccccc2CCc2ccsc21 | > 100 µM | – | – | > 100 µM | – | – | > 100 µM | > 100 | – | > 100 µM | – | – | –
CCc1n[nH]c(=S)n1/N=C\c1ccc(-c2ccccc2[N+](=O)[O-])o1 | > 100 µM | > 100 µM | > 100 µM | > 100 µM | > 100 µM | > 100 µM | > 100 µM | > 100 | > 100 µM | – | – | – | –
